Assay results taken from patent publication US9044453B2, “Long-acting injectable moxidectin formulations and novel moxidectin crystal forms” (MERIAL, INC., priority 2011, dated 2015).

Assay: Moisture Sorption Gravimetric Analysis (SGA), hygroscopicity
Assay type: physicochemical
Settings: isothermal 25° C., 5 to 95 % RH
Procedure: Moisture Sorption Gravimetric Analysis (SGA). Utilizing a dynamic SGA100 from VTI, adsorption and desorption profiles were obtained with the following conditions: 1) Isothermal @ 25° C.; 2) Maximum Equilibration Time of 10 minutes; 3) 0.0010 wt % in 5 minutes; and 4) % RH (Relative Humidity) Steps of 5 to 95, and 95 to 5 @ 5% increments.

CO/N=C1\C[C@]2(C[C@@H]3C[C@@H](C/C=C(\C)C[C@@H](C)/C=C/C=C4\CO[C@@H]5[C@H](O)C(C)=C[C@@H](C(=O)O3)[C@]45O)O2)O[C@H](/C(C)=C/C(C)C)[C@H]1C [Crystalline moxidectin, moxidectin]
hygroscopicity: almost non-hygroscopic

CO/N=C1\C[C@]2(C[C@@H]3C[C@@H](C/C=C(\C)C[C@@H](C)/C=C/C=C4\CO[C@@H]5[C@H](O)C(C)=C[C@@H](C(=O)O3)[C@]45O)O2)O[C@H](/C(C)=C/C(C)C)[C@H]1C [amorphous moxidectin, moxidectin]
hygroscopicity: slightly hygroscopic
